According to patent publication US20020082273A1, “Agents for use in the treatment of alzheimer's disease” (priority 1998, published 2002):

Assay: Cu^2+-induced SDS-resistant polymerization of Aβ peptides, western blot image analysis
Assay type: biochemical, human
Details: for conversion of monomer to dimer / conversion of monomer to trimer: Cu^2+ 30 μM
Experimental: Following incubation (37° C.), aliquots of each reaction (2 ng peptide) were collected at 0 d, 1 d, 3 d and 5 d and western blotted using anti-Aβ monoclonal antibody 8E10 (FIG. 9). Migration of the molecular size markers are indicated (kDa). […] It should be noted that other means of visualizing and/or determining the presence or absence of polymerization other than western blot analysis may be used. Such other means include but are not limited to density sedimentation by centrifugation of the samples.
The generation of SDS-resistant Aβ polymers by metal ions was tested by incubating Cu^2+ (30 μM) or Zn^2+ (30 μM) at pH 6.6, 7.4 and 9.0 with Aβ1-40.
(0-30 μM) at pH 7.4 and 6.6 and the samples analyzed by Western blot and the signal quantitated using the Fluoro-S Image Analysis System (Bio-Rad, Hercules, Calif.) as previously described.

Aβ1-40: synthetic human Aβ peptide, residues 1-40
conversion of monomer to dimer (pH 6.6, 5 d): 29% | conversion of monomer to trimer (pH 6.6, 5 d): 2% | conversion of monomer to dimer (pH 7.4, 5 d): 42% | conversion of monomer to trimer (pH 7.4, 5 d): 9% | peptide converted to SDS-resistant dimer (no added metal, pH 6.6, 7.4 or 9.0, 5 d): Less than 4% | SDS-resistant polymers: Dimer (pH 6.6, [Cu^2+] 0): 2.1 | SDS-resistant polymers: Monomer (pH 6.6, [Cu^2+] 0): 97.9 | SDS-resistant polymers: Pentamer (pH 6.6, [Cu^2+] 0): 0 | SDS-resistant polymers: Tetramer (pH 6.6, [Cu^2+] 0): 0 | SDS-resistant polymers: Trimer (pH 6.6, [Cu^2+] 0): <0.1 | SDS-resistant polymers: Dimer (pH 6.6, [Cu^2+] 0.5): 2.2 | SDS-resistant polymers: Monomer (pH 6.6, [Cu^2+] 0.5): 97.6 | SDS-resistant polymers: Pentamer (pH 6.6, [Cu^2+] 0.5): 0 | SDS-resistant polymers: Tetramer (pH 6.6, [Cu^2+] 0.5): 0 | SDS-resistant polymers: Trimer (pH 6.6, [Cu^2+] 0.5): 0.2 | SDS-resistant polymers: Dimer (pH 6.6, [Cu^2+] 1): 7.3 | SDS-resistant polymers: Monomer (pH 6.6, [Cu^2+] 1): 92.6 | SDS-resistant polymers: Pentamer (pH 6.6, [Cu^2+] 1): 0 | SDS-resistant polymers: Tetramer (pH 6.6, [Cu^2+] 1): 0 | SDS-resistant polymers: Trimer (pH 6.6, [Cu^2+] 1): 0.1 | SDS-resistant polymers: Dimer (pH 6.6, [Cu^2+] 5): 9.8 | SDS-resistant polymers: Monomer (pH 6.6, [Cu^2+] 5): 90.1 | SDS-resistant polymers: Pentamer (pH 6.6, [Cu^2+] 5): 0 | SDS-resistant polymers: Tetramer (pH 6.6, [Cu^2+] 5): 0 | SDS-resistant polymers: Trimer (pH 6.6, [Cu^2+] 5): 0.1 | SDS-resistant polymers: Dimer (pH 6.6, [Cu^2+] 10): 16.1 | SDS-resistant polymers: Monomer (pH 6.6, [Cu^2+] 10): 79.4 | SDS-resistant polymers: Pentamer (pH 6.6, [Cu^2+] 10): 0 | SDS-resistant polymers: Tetramer (pH 6.6, [Cu^2+] 10): 0 | SDS-resistant polymers: Trimer (pH 6.6, [Cu^2+] 10): 4.5 | SDS-resistant polymers: Dimer (pH 6.6, [Cu^2+] 30): 13.2 | SDS-resistant polymers: Monomer (pH 6.6, [Cu^2+] 30): 74.5 | SDS-resistant polymers: Pentamer (pH 6.6, [Cu^2+] 30): 0 | SDS-resistant polymers: Tetramer (pH 6.6, [Cu^2+] 30): 0 | SDS-resistant polymers: Trimer (pH 6.6, [Cu^2+] 30): 12.2 | increase in dimerization (pH 6.6, [Cu^2+] increased from 0.5 to 1 μM): over 3 fold | SDS-resistant polymers: Dimer (pH 7.4, [Cu^2+] 0): 3.2 | SDS-resistant polymers: Monomer (pH 7.4, [Cu^2+] 0): 96.8 | SDS-resistant polymers: Pentamer (pH 7.4, [Cu^2+] 0): 0 | SDS-resistant polymers: Tetramer (pH 7.4, [Cu^2+] 0): 0 | SDS-resistant polymers: Trimer (pH 7.4, [Cu^2+] 0): <0.1 | SDS-resistant polymers: Dimer (pH 7.4, [Cu^2+] 0.5): 4.9 | SDS-resistant polymers: Monomer (pH 7.4, [Cu^2+] 0.5): 94.8 | SDS-resistant polymers: Pentamer (pH 7.4, [Cu^2+] 0.5): 0 | SDS-resistant polymers: Tetramer (pH 7.4, [Cu^2+] 0.5): 0 | SDS-resistant polymers: Trimer (pH 7.4, [Cu^2+] 0.5): 0.3 | SDS-resistant polymers: Dimer (pH 7.4, [Cu^2+] 1): 5.9 | SDS-resistant polymers: Monomer (pH 7.4, [Cu^2+] 1): 93.6 | SDS-resistant polymers: Pentamer (pH 7.4, [Cu^2+] 1): 0 | SDS-resistant polymers: Tetramer (pH 7.4, [Cu^2+] 1): 0 | SDS-resistant polymers: Trimer (pH 7.4, [Cu^2+] 1): 0.6 | SDS-resistant polymers: Dimer (pH 7.4, [Cu^2+] 5): 14.2 | SDS-resistant polymers: Monomer (pH 7.4, [Cu^2+] 5): 84.3 | SDS-resistant polymers: Pentamer (pH 7.4, [Cu^2+] 5): 0 | SDS-resistant polymers: Tetramer (pH 7.4, [Cu^2+] 5): 0 | SDS-resistant polymers: Trimer (pH 7.4, [Cu^2+] 5): 1.5 | SDS-resistant polymers: Dimer (pH 7.4, [Cu^2+] 10): 13.2 | SDS-resistant polymers: Monomer (pH 7.4, [Cu^2+] 10): 85.2 | SDS-resistant polymers: Pentamer (pH 7.4, [Cu^2+] 10): 0 | SDS-resistant polymers: Tetramer (pH 7.4, [Cu^2+] 10): 0 | SDS-resistant polymers: Trimer (pH 7.4, [Cu^2+] 10): 1.6 | SDS-resistant polymers: Dimer (pH 7.4, [Cu^2+] 30): 19.1 | SDS-resistant polymers: Monomer (pH 7.4, [Cu^2+] 30): 76.2 | SDS-resistant polymers: Pentamer (pH 7.4, [Cu^2+] 30): 0 | SDS-resistant polymers: Tetramer (pH 7.4, [Cu^2+] 30): 0 | SDS-resistant polymers: Trimer (pH 7.4, [Cu^2+] 30): 4.7
